Measured values: ChEMBL document CHEMBL1122867, “Inhibition of human leukocyte elastase, porcine pancreatic elastase, and chymotrypsin by elasnin and other 4-hydroxy-2-pyrones” (J Med Chem, 1985)

Assays:
[1] = Partition coefficient (logP) (octanol/saline); assay type: physicochemical
[2] = target: Chymotrypsin-like elastase family member 1 (Sus scrofa, UniProt P00772); test: Inhibitory activity against porcine pancreatic elastase (PP elastase) expressed as inhibitory constant
Neutrophil elastase = target: T1, Neutrophil elastase (Homo sapiens, UniProt P08246); test: Inhibitory activity against human leukocyte elastase (HL elastase) expressed as inhibitory constant
T1 sequence (P08246 whole entry): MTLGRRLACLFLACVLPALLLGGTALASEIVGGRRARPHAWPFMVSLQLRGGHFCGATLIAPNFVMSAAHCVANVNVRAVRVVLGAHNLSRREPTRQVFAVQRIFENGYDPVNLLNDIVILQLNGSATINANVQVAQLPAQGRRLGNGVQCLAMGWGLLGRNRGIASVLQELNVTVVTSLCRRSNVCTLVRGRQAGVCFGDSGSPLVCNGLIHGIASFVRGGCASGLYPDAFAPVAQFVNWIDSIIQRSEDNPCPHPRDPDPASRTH

Sequence of Chymotrypsin-like elastase family member 1 (P00772 whole entry): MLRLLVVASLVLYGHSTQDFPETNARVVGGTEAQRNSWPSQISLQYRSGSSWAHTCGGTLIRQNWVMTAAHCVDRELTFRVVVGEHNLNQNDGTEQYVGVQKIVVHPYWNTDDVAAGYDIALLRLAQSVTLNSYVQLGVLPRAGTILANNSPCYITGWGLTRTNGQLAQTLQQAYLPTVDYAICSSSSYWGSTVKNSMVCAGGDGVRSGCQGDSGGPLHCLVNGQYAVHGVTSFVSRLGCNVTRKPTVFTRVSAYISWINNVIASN

SMILES | logP [1] | Ki [2] [µM] | Ki (Neutrophil elastase) [µM]
CCCCCCC(C=O)(CCCC)c1oc(=O)c(CCCC)c(O)c1CCCC (stereo unspecified) | 1.52 | 15.1 | 151
Cc1cc(O)c(C)c(=O)o1 | 0.74 | 3890 | 6310
O=C(Cc1cc(=O)cc(O)o1)c1ccccc1 | 0.43 | – | 10000
Cc1oc(=O)c(C)c(O)c1C | 0.36 | 21900 | 4900
CCCCc1c(CC(C)O)oc(=O)c(CCCC)c1OC(C)=O (stereo unspecified) | 1.92 | 1070 | 347
CCCCc1c(CC(C)=O)oc(=O)c(CCCC)c1OC(C)=O | 2.82 | 251 | 288
CCCCc1c(CC(C)=O)oc(=O)c(CCCC)c1O | 1.74 | 741 | 490
CCCCCC(=O)C(CCCC)c1oc(=O)c(CCCC)c(OC(C)=O)c1CCCC (stereo unspecified) | 3.53 | 8.13 | –
Cc1cc(O)cc(=O)o1 [4-HYDROXY-6-METHYLPYRAN-2-ONE] | 0.5 | 3090 | 8130
C/C=C(\c1ccccc1)c1oc(=O)c(CCCC)c(O)c1CCCC | 1.39 | 141 | 363
CCCCc1c(C2OC2C)oc(=O)c(CCCC)c1OC(C)=O (stereo unspecified) | 2.17 | 316 | 339
Cc1c(CC(=O)c2ccccc2)oc(=O)c(C)c1O | 0.73 | 3240 | 6030
CCCCCC(=O)C(CCCC)c1oc(=O)c(CCCC)c(O)c1CCCC (stereo unspecified) | 2.52 | 69.2 | 93.3
Cc1c(O)cc(CC(=O)c2ccccc2)oc1=O | 0.78 | 2140 | 977
CCCCc1c(C)oc(O)c(CCCC)c1=O | 0.79 | 562 | 646
CCCCc1c(C(CCCC)C(=O)c2ccccc2)oc(=O)c(CCCC)c1O (stereo unspecified) | 1.21 | 21.4 | 95.5
